Earlier results on one compound are cited in US20080003262A1, “COMPOSITIONS AND THERAPEUTIC METHODS OF USE” (DrugTech Corporation, priority 2006, published 2008).

The data set concerns DIV. To be noted: intravaginal 2% clindamycin cream or 10% hydrocortisone.

As to `C[C@]12CCC(=O)C=C1CC[C@@H]1[C@@H]2[C@@H](O)C[C@@]2(C)[C@H]1CC[C@]2(O)C(=O)CO` [hydrocortisone], the “Response of DIV to treatment” value is reported as “responds”.
